Assay results from patent US20210115018A1, “PIPERIDINE COMPOUNDS AS COVALENT MENIN INHIBITORS” (THE REGENTS OF THE UNIVERSITY OF MICHIGAN, priority 2018, published 2021).

How the values were obtained:
[1] = tested on: MOLM13; assay: 7-day proliferation assay (WST-8), cell growth inhibition; format: cell-based; conditions: Homo sapiens, MOLM-13, 168 h, MOLM13 cells, 7 days
In short: (§1)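 Cells seeded at 2,000-3,000/well were exposed to serially diluted compound for 7 days at 37° C., 5% CO2. Viability was read by WST-8 absorbance at 450 nm after 1-2 h color development; readings normalized to DMSO-treated cells, IC50 by four-parameter nonlinear regression.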

[2] = tested on: MV4-11; assay: as above; format: cell-based; conditions: Homo sapiens, MV4-11, 168 h, MV4-11 cells, 7 days
In short: as §1

SMILES | IC50 [1] [nM] | IC50 [2] [nM]
C=CC(=O)Nc1cc(N(C)CCN(C)C)cc(S(=O)(=O)c2ccc(N3CC(CN4CCC([C@@](CN5CCC5)(c5cccc(F)c5)[C@H]5CCC[C@@H]5NC(=O)OC)CC4)C3)cc2)c1 [compound 75] | < 50 | < 10
C=CC(=O)Nc1cccc(S(=O)(=O)c2ccc(N3CC(F)(CN4CCC([C@@](CN5CCC5)(c5cccc(F)c5)[C@H]5CCC[C@@H]5NC(=O)OC)CC4)C3)cc2)c1 [compound 76] | < 50 | < 10
C=CC(=O)Nc1cc(S(=O)(=O)c2ccc(N3CC(F)(CN4CCC([C@@](CN5CCC5)(c5cccc(F)c5)[C@H]5CCC[C@@H]5NC(=O)OC)CC4)C3)cc2)ccn1 [compound 82] | < 100 | < 10
C=CC(=O)Nc1cncc(S(=O)(=O)c2ccc(N3CC(F)(CN4CCC([C@@](CN5CCC5)(c5cccc(F)c5)[C@H]5CCC[C@@H]5NC(=O)OC)CC4)C3)cc2)c1 [compound 83] | < 100 | < 10
C=CC(=O)Nc1cccc(S(=O)(=O)c2ccc(N3CC(F)(CN4CCC([C@@](CN5CCC5)(c5cccc(F)c5)[C@H]5CCC[C@@H]5NC(=O)OC)CC4)C3)cc2)n1 [compound 85] | < 500 | < 500
C=CC(=O)Nc1cc(F)cc(S(=O)(=O)c2ccc(N3CC(F)(CN4CCC([C@@](CN5CCC5)(c5cccc(F)c5)[C@H]5CCC[C@@H]5NC(=O)OC)CC4)C3)cc2)c1 [compound 88] | < 50 | < 50
C=CC(=O)Nc1cc(OC)cc(S(=O)(=O)c2ccc(N3CC(F)(CN4CCC([C@@](CN5CCC5)(c5cccc(F)c5)[C@H]5CCC[C@@H]5NC(=O)OC)CC4)C3)c(F)c2)c1 [compound 91] | < 50 | < 50
C=CC(=O)Nc1cc(S(=O)(=O)c2ccc(N3CC(F)(CN4CCC([C@@](CN5CCC5)(c5cccc(F)c5)[C@H]5CCC[C@@H]5NC(=O)OC)CC4)C3)c(F)c2)ccc1OC [compound 92] | < 50 | < 10
COC(=O)N[C@H]1CCC[C@@H]1[C@](CN1CCC1)(c1cccc(F)c1)C1CCN(CC2(F)CN(c3ccc(S(=O)(=O)C4CN(C(=O)/C=C/CN5CCCCC5)C4)cc3F)C2)CC1 [compound 94] | < 50 | < 10
COC(=O)N[C@H]1CCC[C@@H]1[C@](CN1CCC1)(c1cccc(F)c1)C1CCN(CC2(F)CN(c3ccc(S(=O)(=O)C4CN(C(=O)/C=C/CN5CCCCC5)C4)cc3)C2)CC1 [compound 95] | < 50 | < 10
CC#CC(=O)N1CC(S(=O)(=O)c2ccc(N3CC(F)(CN4CCC([C@@](CN5CCC5)(c5cccc(F)c5)[C@H]5CCC[C@@H]5NC(=O)OC)CC4)C3)c(F)c2)C1 [compound 102] | < 50 | < 10
COC(=O)N[C@H]1CCC[C@@H]1[C@](CN1CCC1)(c1cccc(F)c1)C1CCN(CC2(F)CN(c3ccc(S(=O)(=O)C4CCCN(C(=O)/C=C/CO)C4)cc3F)C2)CC1 (stereo partly drawn) [compound 122] | < 100 | < 50
C=CC(=O)N1CCc2ccc(S(=O)(=O)c3ccc(N4CC(F)(CN5CCC([C@@](CN6CCC6)(c6cccc(F)c6)[C@H]6CCC[C@@H]6NC(=O)OC)CC5)C4)c(F)c3)cc21 [compound 126] | < 1000 | < 500
C=CC(=O)N1CCc2c1cccc2S(=O)(=O)c1ccc(N2CC(F)(CN3CCC([C@@](CN4CCC4)(c4cccc(F)c4)[C@H]4CCC[C@@H]4NC(=O)OC)CC3)C2)c(F)c1 [compound 127] | < 500 | < 100
C=CC(=O)N1CCOC[C@@H](S(=O)(=O)c2ccc(N3CC(CN4CCC([C@@](Cn5ccnn5)(c5cccc(F)c5)[C@H]5CCC[C@@H]5NC(=O)OC)CC4)C3)c(F)c2)C1 [compound 182] | < 100 | < 10
C=CC(=O)N1CCOC[C@@H](S(=O)(=O)c2ccc(N3CC(F)(CN4CCC([C@@](Cn5ccnn5)(c5cccc(F)c5)[C@H]5CCC[C@@H]5NC(=O)OC)CC4)C3)c(F)c2)C1 [compound 184] | < 500 | < 500
C=CC(=O)N1CCOC[C@@H](S(=O)(=O)c2ccc(N3CC(C)(CN4CCC([C@@](Cn5ccnn5)(c5cccc(F)c5)[C@H]5CCC[C@@H]5NC(=O)OC)CC4)C3)c(F)c2)C1 [compound 185] | < 1000 | < 100
C=CC(=O)Nc1cccc(S(=O)(=O)c2ccc(N3CC(CN4CCC([C@@](CN5CCC5)(c5cccc(F)c5)[C@H]5CCC[C@@H]5NC(=O)OC)CC4)(OC)C3)c(F)c2)c1 [compound 187] | < 10 | < 10
C=CC(=O)Nc1cccc(S(=O)(=O)c2ccc(N3CC(CN4CCC([C@@](CN5CCC5)(c5cccc(F)c5)[C@H]5CCC[C@@H]5NC(=O)OC)CC4)(OC)C3)cc2)c1 [compound 188] | < 10 | < 10
C=CC(=O)N1CCC[C@@H](S(=O)(=O)c2ccc(N3CC(CN4CCC([C@@](CN5CCC5)(c5cccc(F)c5)[C@H]5CCC[C@@H]5NC(=O)OC)CC4)C3)cc2CN2CC(F)C2)C1 [compound 208] | < 50 | < 50

Next, values leading:

IC50 [1] [nM] | IC50 [2] [nM] | SMILES
< 50 | < 50 | C=CC(=O)N1CCCC(S(=O)(=O)c2ccc(N3CC(F)(CN4CCC([C@@](CN5CCC5)(c5cccc(F)c5)[C@H]5CCC[C@@H]5NC(=O)OC)CC4)C3)cc2)C1 (stereo partly drawn) [compound 112]
< 50 | < 50 | C=CC(=O)N1CCOCC(S(=O)(=O)c2ccc(N3CC(F)(CN4CCC([C@@](CN5CCC5)(c5cccc(F)c5)[C@H]5CCC[C@@H]5NC(=O)OC)CC4)C3)cc2)C1 (stereo partly drawn) [compound 125]
< 100 | < 10 | COC(=O)N[C@H]1CCC[C@@H]1[C@](CNC(C)=O)(c1cccc(F)c1)C1CCN(CC2CN(c3ccc(S(=O)(=O)C4CN(C(=O)/C=C/CN(C)C)C4)cc3)C2)CC1 [compound 128]
< 50 | < 50 | C=CC(=O)N1CC(S(=O)(=O)c2ccc(N3CC(CN4CCC([C@@](CNC(C)=O)(c5cccc(F)c5)[C@H]5CCC[C@@H]5NC(=O)OC)CC4)C3)cc2CN2CC(F)C2)C1 [compound 176]
< 500 | < 100 | C=CC(=O)N1CC(S(=O)(=O)c2ccc(N3CC(F)(CN4CCC([C@@](CNC(C)=O)(c5cccc(F)c5)[C@H]5CCC[C@@H]5NC(=O)OC)CC4)C3)cc2CN2CC(F)C2)C1 [compound 177]
< 100 | < 50 | C=CC(=O)N1CCOC[C@@H](S(=O)(=O)c2ccc(N3CC(CN4CCC([C@@](CNC(=O)OC)(c5cccc(F)c5)[C@H]5CCC[C@@H]5NC(=O)OC)CC4)C3)c(F)c2)C1 [compound 179]
< 500 | < 50 | C=CC(=O)N1CCOC[C@@H](S(=O)(=O)c2ccc(N3CC(C)(CN4CCC([C@@](CNC(=O)OC)(c5cccc(F)c5)[C@H]5CCC[C@@H]5NC(=O)OC)CC4)C3)c(F)c2)C1 [compound 181]
< 50 | < 50 | C=CC(=O)N1CCCC[C@@H](S(=O)(=O)c2ccc(N3CC(CN4CCC([C@@](CNC(=O)OC)(c5cccc(F)c5)[C@H]5CCC[C@@H]5NC(=O)OC)CC4)C3)c(F)c2)C1 [compound 186]
< 50 | < 50 | C=CC(=O)N1CCC[C@@H](S(=O)(=O)c2ccc(N3CC(CN4CCC([C@@](CNC(C)=O)(c5cccc(F)c5)[C@H]5CCC[C@@H]5NC(=O)OC)CC4)C3)cc2)C1 [compound 199]
< 500 | < 500 | C=CC(=O)N1CCC[C@@H](S(=O)(=O)c2ccc(N3CC(O)(CN4CCC([C@@](CNC(C)=O)(c5cccc(F)c5)[C@H]5CCC[C@@H]5NC(=O)OC)CC4)C3)cc2)C1 [compound 205]
< 100 | < 50 | C=CC(=O)N1CCC[C@@H](S(=O)(=O)c2ccc(N3CC(CN4CCC([C@@](CN5CCC5)(c5cccc(F)c5)[C@H]5CCC[C@@H]5NC(=O)OC)CC4)(OC)C3)cc2)C1 [compound 212]
< 100 | < 50 | C=CC(=O)N1CCOC[C@H](S(=O)(=O)c2ccc(N3CC(C)(CN4CCC([C@@](CN5CCC5)(c5cccc(F)c5)[C@H]5CCC[C@@H]5NC(=O)OC)CC4)C3)cc2)C1 [compound 213]
< 500 | < 500 | C=CC(=O)N1CCOC[C@@H](S(=O)(=O)c2ccc(N3CC(C)(CN4CCC([C@@](CN5CCC5)(c5cccc(F)c5)[C@H]5CCC[C@@H]5NC(=O)OC)CC4)C3)cc2)C1 [compound 214]
